Reference: patent publication US20100075316A1, “METHOD FOR I[…] VITAMIN D METABOLISM” (priority 2006, published 2010)

How the values were obtained:
CYP24 mRNA = test: Semi-quantitative RT-PCR of CYP24 exon 11-12 transcripts before and after calcitriol treatment; assay type: cell-based, human; settings: after calcitriol treatment
From the text: FIGS. 3A-3D provide graphical representations of CYP24 mRNA splicing patterns and cDNA amplification profiles. FIG. 3A provides a graphical map of the CYP24 gene from exon 9 through exon 11, an example of primer locations for obtaining cDNA using RT-PCR, and resulting products in the case of correct (280 bp) and aberrant (880 bp) splicing. FIG. 3B provides a graphical map of the CYP24 gene from exon 11 through exon 12 and RT-PCR cDNA product sizes for correctly spliced CYP24 mRNA from a CYP24 gene lacking a predictive SNP (150 bp), as well as the inclusion of intron 12 sequences in aberrantly spliced CYP24 mRNA when the predictive SNP is present (302 by transcript). FIG. 3C is a photographic representation of cDNA amplification products of unspliced or spliced CYP24 mRNA across exons 9-11 of the CYP24 mRNA. FIG. 3D is a photographic representation of cDNA amplification products across exons 11-12 of correctly spliced (150 bp) or aberrantly spliced (302 bp) CYP24 mRNA from various cancer cell lines.
Calcitriol treatment (T) modulated the relative expression of the two transcripts differently in the three prostate cancer cell lines. CYP24 enzyme activity is associated with the expression of the lower molecular weight transcript in the three prostate cancer cell lines as shown in Table 3 (D3=calcitriol), which describes the relationship between CYP24 protein activity phenotypes and exon 11-12 transcript size before (“C” in FIG. 3) and after (“T” in FIG. 3) calcitriol treatment in prostate cancer cell lines.

[1] = Serum calcitriol clearance in cancer patients by CYP24 genotype; assay type: in vivo, human; settings: TT/TT genotype (positions 15752 and 15774 of SEQ ID NO:1) vs TC/TC; 30 patients, oral high doses of calcitriol; p-value=0.0377
Procedure: Elimination half life was calculated using the equation: T1/2=0.693/β, where β is the slope of the regression line of the terminal log serum calcitriol concentration versus time.
This Example provides an analysis of clinical ramifications of certain CYP24 polymorphisms. To obtain the data presented in this Example, we analyzed CYP24 polymorphisms in the intron between exon 9 and 10 in DNA samples obtained from 30 cancer patients treated with high doses of orally administered calcitriol. […] (Smith DC, et al., Clin Cancer Res. 1999; 5: 1339-1345).

CYP24 = CYP24 enzyme activity in untreated and calcitriol-treated human cancer cell lines; assay type: cell-based; settings: for CYP24A1 enzyme activity profiles: baseline and calcitriol-induced
From the text: FIG. 2 is a graphical depiction of CYP24 enzymatic activity measured in untreated and calcitriol treated human cancer cell lines.
This Example provides an analysis of CYP24 enzyme activity in untreated and calcitriol-treated human (prostate, breast, lung and colon) cancer cell lines to characterize their capacity to catabolize calcitriol.

PC3 = settings: PC3, androgen independent human prostate cancer cells; cited from earlier work
advanced prostate cancer = settings: randomized trial, men with advanced prostate cancer; cited from earlier work
LNCaP = settings: androgen dependent human prostate cancer cell line; cited from earlier work
DU145 = settings: DU145, androgen independent human prostate cancer cells; cited from earlier work

With `C=C1/C(=C\C=C2/CCC[C@]3(C)[C@@H]([C@H](C)CCCC(C)(C)O)CC[C@@H]23)C[C@@H](O)C[C@@H]1O` [calcitriol] the “Exon 11-12 size (bp), D3 treated” value (CYP24 mRNA; DU145 prostate cancer cells) was 135 bp, the “Exon 11-12 size (bp), D3 treated” value (CYP24 mRNA; LNCaP prostate cancer cells) was 307 bp and the “Exon 11-12 size (bp), D3 treated” value (CYP24 mRNA; PC3 prostate cancer cells) was 135 bp. For the same compound, the “serum calcitriol elimination half life (T1/2)” value [1] was “significantly lower T1/2 than the TC/TC genotype”, the “baseline and calcitriol-induced CYP24 enzyme profile” value (CYP24; A549 lung cancer cells) was “high baseline and calcitriol induced CYP24 activity” and the “CYP24A1 enzyme activity profiles” value (CYP24; DU145 prostate cancer cells) was “high baseline and calcitriol induced CYP24 activity”. For the same compound, the “CYP24A1 enzyme activity profiles” value (CYP24; DU145 prostate cancer cells, listed as D3) was “High baseline & D3 inducible”, the “baseline and calcitriol-induced CYP24 enzyme profile” value (CYP24; H520 lung cancer cells) was “negligible baseline and calcitriol-induced CYP24 activity” and the “baseline and calcitriol-induced CYP24 enzyme profile” value (CYP24; HCT116 colon cancer cells) was “high baseline and calcitriol induced CYP24 activity”. The “baseline and calcitriol-induced CYP24 enzyme profile” value (CYP24; HT29 colon cancer cells) was “barely detectable baseline CYP24 activity that is calcitriol-induced”, the “CYP24A1 enzyme activity profiles” value (CYP24; LNCaP prostate cancer cells) was “negligible baseline and calcitriol-induced CYP24 activity” and the “CYP24A1 enzyme activity profiles” value (CYP24; LNCaP prostate cancer cells, listed as D3) was “Negligible: baseline & D3 inducible”. The “baseline and calcitriol-induced CYP24 enzyme profile” value (CYP24; MCF7 breast cancer cells) was “barely detectable baseline CYP24 activity that is calcitriol-induced”, the “baseline and calcitriol-induced CYP24 enzyme profile” value (CYP24; MDA231 breast cancer cells) was “high baseline and calcitriol induced CYP24 activity” and the “CYP24A1 enzyme activity profiles” value (CYP24; PC3 prostate cancer cells) was “barely detectable baseline CYP24 activity that is calcitriol-induced”. For the same compound, the “CYP24A1 enzyme activity profiles” value (CYP24; PC3 prostate cancer cells, listed as D3) was “Negligible baseline & high D3 inducible”, the “sensitivity to calcitriol growth inhibition” value (PC3) was “relatively resistant to calcitriol growth inhibition” and the “potentiation of antitumor activity of docetaxel” value (advanced prostate cancer) was “potentiate the antitumor activity of docetaxel”. The “sensitivity to calcitriol growth inhibition” value (LNCaP) was “sensitive to calcitriol growth inhibition” and the “sensitivity to calcitriol growth inhibition” value (DU145) was “relatively resistant to calcitriol growth inhibition”.
